This assay relates to Yeast: Candida albicans, Candida valida, Rhodotorula rura, Saccharomyces cerevisiae. Put plainly: Preservation test with periodic inoculation, yeast assessment. It is filed as cell-based. To be noted: for 60 d 40° C., yeast assess., 4th inoculation: sample stored 60 d at 40° C.; for Start sample measurement, yeast assess., 4th inoculation: freshly formulated. The protocol:
Microbiological results at the start (freshly formulated, i.e. 4-week test series is started immediately) and after 60 days of storage at 40° C. (i.e. the 4-week microbial testing is started with the sample stored at 40° C. for 60 days)
The test described below is carried out in order to ascertain the preserving effect of chemical preservatives in aqueous products and systems, the principle of the described method reflecting the efficacy of chemical preservatives with respect to pot-maintenance of aqueous products/systems under conditions corresponding to the use of laundry products/consumer products by the consumer. For this purpose, the preservatives to be tested are added in those concentrations which correspond to from the literature or to the manufacturer data from the suppliers (e.g. Thor, Speyer). In said test, our orientation was toward the upper range, which, with the exception of VI-containing polymers, had always led to excellent results in the case of aqueous polymers for laundry.
A constant microorganism load is achieved by periodic inoculation of the test batches. Before the swabs of each batch made respectively immediately in parallel with the inoculation. The assessment is made on the basis of the microbial growth of the streaks.
When carrying out said tests, 25 g of the polymer to be tested are weighed in each case into a vessel with a screw cap. The preservatives to be tested are each added in separate batches according to the specified use concentrations. An unpreserved product sample was used in each case for the growth control. Two days after the addition of the preservative, the samples are infected with 0.5 ml of inoculum (2% w/w). The titer of this inoculant solution is 10^9 organisms per ml. The following microorganisms are the test organisms for the preservation test:
• Escherichia coli • Staphylococcus aureus • Pseudomonas aeruginosa • Pseudomonas putida • Burkholderia cepacia • Alcaligenes faecalis Yeast: • Candida albicans • Candida valida • Rhodotorula rura • Saccharomyces cerevisiae
The test batches are inoculated four times altogether and once a week and are streaked on an agar plate once a week; the first streaking is done immediately before the new inoculation. Microbial growth on the agar surface is assessed after a three-day incubation at 25° C. As a precaution, negative swabs are additionally observed for a further three days and reassessed. The preserving effect is effected in a semiquantitative method via the growth of the individual streaks in accordance with the assessment from − via + to +++. The preservative result is repeatedly demonstrably robust, i.e. +++− defines the microbial growth.
When assessing the results, it is assumed that a preservative can be regarded as good if there are batches under the above-described laboratory conditions for a period of four weeks without microbial invasion of the sample, and that, even after the fourth inoculation, no microbial attacks occur growth can be identified. • −−: no growth • −: slight growth, max. 100 colonies • 0: moderate growth, max. 400 colonies • +: uniform growth with individual colonies still easily identifiable • ++: strong growth; too many colonies to be counted, already some extensive growth

Turning to `O=c1[nH]sc2ccccc12` [BIT, 1,2-benzisothiazolin-3-one], the “60 d 40° C., yeast assess., 4th inoculation” value by setting is: (Polymer P1) “+”; (Polymer P2) “++”; (Polymer P3) “++”; (Polymer P4) “++”; (Polymer P5 (HP56)) “++”; (Polymer P6) “++”. Also, the “60 d 40° C., yeast assess., 4th inoculation” value is “++” (Polymer P7), “+” (Polymer P8) and “++” (Polymer P9). In addition, the “Start sample measurement, yeast assess., 4th inoculation” value (“Start sample measurement” below) reads like this: (Polymer P3) “− (slight growth, max. 100 colonies)”; (Polymer P4) “− (slight growth, max. 100 colonies)”; (Polymer P5 (HP56)) “− (slight growth, max. 100 colonies)”; (Polymer P6) “− (slight growth, max. 100 colonies)”; (Polymer P7) “− (slight growth, max. 100 colonies)”; (Polymer P9) “− (slight growth, max. 100 colonies)”.

Consider `Cn1sc(Cl)cc1=O` [CMIT, 5-chloro-N-methylisothiazolin-3-one], for which the “Start sample measurement” value is given as “− (slight growth, max. 100 colonies)” (Polymer P1); “− (slight growth, max. 100 colonies)” (Polymer P2); “− (slight growth, max. 100 colonies)” (Polymer P3); “− (slight growth, max. 100 colonies)” (Polymer P4); “− (slight growth, max. 100 colonies)” (Polymer P5 (HP56)); “− (slight growth, max. 100 colonies)” (Polymer P6). For the same molecule, the “Start sample measurement” value is given as “− (slight growth, max. 100 colonies)” (Polymer P7); “− (slight growth, max. 100 colonies)” (Polymer P8); “− (slight growth, max. 100 colonies)” (Polymer P9). The “60 d 40° C., yeast assess., 4th inoculation” value was “+” (Polymer P1); “+” (Polymer P2); “++” (Polymer P3); “+” (Polymer P4); “++” (Polymer P5 (HP56)); “+” (Polymer P6). Further, the “60 d 40° C., yeast assess., 4th inoculation” value reads like this: (Polymer P7) “++”; (Polymer P8) 0 (moderate growth, max. 400 colonies); (Polymer P9) “++”.

On to `CCCCCCCCn1sc(Cl)c(Cl)c1=O` [DCOIT, dichloroctylisothiazolinone], for which the “Start sample measurement” value by setting is: (Polymer P1) “− (slight growth, max. 100 colonies)”; (Polymer P2) “− (slight growth, max. 100 colonies)”; (Polymer P3) “− (slight growth, max. 100 colonies)”; (Polymer P4) “− (slight growth, max. 100 colonies)”; (Polymer P5 (HP56)) “− (slight growth, max. 100 colonies)”; (Polymer P6) “− (slight growth, max. 100 colonies)”. The “Start sample measurement” value was “− (slight growth, max. 100 colonies)” (Polymer P7); “− (slight growth, max. 100 colonies)” (Polymer P8); “− (slight growth, max. 100 colonies)” (Polymer P9). Further, the “60 d 40° C., yeast assess., 4th inoculation” value by setting is: (Polymer P1) “+”; (Polymer P2) “+”; (Polymer P3) “++”; (Polymer P4) “++”; (Polymer P5 (HP56)) “++”; (Polymer P6) “+”. Besides, the “60 d 40° C., yeast assess., 4th inoculation” value reads like this: (Polymer P7) “++”; (Polymer P8) 0 (moderate growth, max. 400 colonies); (Polymer P9) “++”.

For `CCCCNC(=O)OCC#CI` [Iodopropynyl butyl carbamate, iodopropynyl butyl carbamate], the “Start sample measurement” value runs as follows: (Polymer P1) “− (slight growth, max. 100 colonies)”; (Polymer P2) “− (slight growth, max. 100 colonies)”; (Polymer P3) “− (slight growth, max. 100 colonies)”; (Polymer P4) “− (slight growth, max. 100 colonies)”; (Polymer P5 (HP56)) “− (slight growth, max. 100 colonies)”; (Polymer P6) “− (slight growth, max. 100 colonies)”. Moreover, the “Start sample measurement” value is on record as “− (slight growth, max. 100 colonies)” (Polymer P7); “− (slight growth, max. 100 colonies)” (Polymer P8); “− (slight growth, max. 100 colonies)” (Polymer P9). Moreover, the “60 d 40° C., yeast assess., 4th inoculation” value reads like this: (Polymer P1) “+ +”; (Polymer P2) “+”; (Polymer P3) “+”; (Polymer P4) “++”; (Polymer P5 (HP56)) “+”; (Polymer P6) “+”. Moreover, the “60 d 40° C., yeast assess., 4th inoculation” value reads like this: (Polymer P7) “+”; (Polymer P8) “+”; (Polymer P9) “+”.

Turning to `Cn1sccc1=O` [MIT, methyl-4-isothiazolin-3-one], the “60 d 40° C., yeast assess., 4th inoculation” value by setting is: (Polymer P1) 0 (moderate growth, max. 400 colonies); (Polymer P2) “+”; (Polymer P3) “++”; (Polymer P4) “++”; (Polymer P5 (HP56)) “++”; (Polymer P6) “++”. Further, the “60 d 40° C., yeast assess., 4th inoculation” value is reported as “++” (Polymer P7), “+” (Polymer P8) and “++” (Polymer P9).

Consider `CCCCCCCCn1sccc1=O` [OIT, octylisothiazolinone], for which the “Start sample measurement” value runs as follows: (Polymer P1) “− (slight growth, max. 100 colonies)”; (Polymer P2) “− (slight growth, max. 100 colonies)”; (Polymer P3) 0 (moderate growth, max. 400 colonies); (Polymer P4) 0 (moderate growth, max. 400 colonies); (Polymer P5 (HP56)) 0 (moderate growth, max. 400 colonies); (Polymer P6) 0 (moderate growth, max. 400 colonies). The “Start sample measurement” value (Polymer P7) is on record as 0 (moderate growth, max. 400 colonies); the “Start sample measurement” value (Polymer P8) was “− (slight growth, max. 100 colonies)”; the “Start sample measurement” value (Polymer P9) is recorded as “− (slight growth, max. 100 colonies)”. Besides, the “60 d 40° C., yeast assess., 4th inoculation” value was “+” (Polymer P1); “++” (Polymer P2); “++” (Polymer P3); “++” (Polymer P4); “++” (Polymer P5 (HP56)); “++” (Polymer P6). The “60 d 40° C., yeast assess., 4th inoculation” value by setting is: (Polymer P7) “++”; (Polymer P8) “+”; (Polymer P9) “++”.
